The source of these data is patent US20240182382A1, “ALIPHATIC 18F-RADIOLABELING OF A TETRAZINE PRECURSOR” (UNIVERSITY OF COPENHAGEN, priority 2021, published 2024).

In series [1] the test system is CC49-TCO. The experiment in a line: Ex vivo blocking assay: blocking of [111In]Tz-Tg binding to CC49-TCO in LS174T tumor xenografts. Details: species or system nude BALB/c mice. As to conditions: for Normalized Tumor blocking effect: change in tumor uptake of [111In]Tz-Tg 22 h p.i., Tz administered 1 h prior, normalized to non-blocked control, mean from n = 3 mice/group. As for the experimental part:
FIG. 3 show a schematic display of the blocking assay. The blocking effect of non-radiolabeled Tz was determined as the change in tumor uptake of [111 1n]Tz-Tg 22 h p.i. Each Tz was administered 1 h prior to [111 1n]Tz-Tg and the uptake normalized to a group of animals were no blocking was performed (control).
The inventors have recently developed a blocking assay that allows to assess the in vivo ligation performance of unlabeled tetrazine derivatives. This assay omits time-consuming development of radiolabeled tetrazines for every ligand to be tested. In this assay, binding of [^111In]Tz-Tg (see structure in example 7), a literature described pretargeted imaging agent, is blocked in vivo to the pretargeting vector CC49-TCO (described in Stéen, J.; Jørgensen, J. T.; Christoph, D.; Battisti, U. M.; Nørregaard, K.; Edem, P.; Bratteby, K.; Shalgunov, V.; Martin, W.; Svatunek, D.; Poulie, C. B. M.; Hvass, L.; Simon, M.; Thomas, W.; Rossin, R.; Robillard, M.; Kristensen, J. L.; Mikula, H.; Kjaer, A.; Herth, M. Lipophilicity and Click Reactivity Determine the Performance of Bioorthogonal Tetrazine Tools in Pretargeted in Vivo Chemistry; 2020 Dec. 24, 2020.), which was administered 72 h prior. The blocking effect of the unlabeled tetrazine derivatives is afterwards quantified via an ex vivo biodistribution study and normalized to the binding of [^111In]Tz-Tg determined without any blocking.
All animal studies were approved by the Danish Animal Welfare Council, ministry of Justice. Five weeks old female nude BALB/c mice (Charles River, Sulzfeld, Germany) were allowed to acclimatize for one week with access to water and chow ad libitum. Human colon cancer cell line (LS174T; obtained from ATCC) was cultured in minimum essential medium (MEM) supplemented with 10% fetal bovine serum, 1% L-glutamine, 1% sodium pyruvate, 1% non-essential amino acids, and 1% penicillin-streptomycin at 37° C. and 5% CO2. Cells were harvested by trypsinization at a confluence of 70-90% and subcutaneous tumors were established in the left flank of the 6 weeks old animals by inoculation of 5×10^6 LS174T cells resuspended in sterile PBS (100 μL) and allowed to grow for 7-10 days. Tumors were measured using a caliper and the volume calculated using the formula volume=1/2 (length×width 2).
Tumor-bearing animals were matched in groups based on their tumor volume (tumor volumes of ˜100-300 mm^3, n=3 in each group) and were administered 100 μg/100 μL of CC49-TCO (100 μg/100 μL, ˜7 TCO/mAb) per mouse. After 3 days, animals were injected with non-radioactive Tz (10-20 nmol). After 1 h, they were administered with IniTz-Tg (˜13 MBq/100 μL, 1-2 nmol) via the tail vein. [^111In]Tz-Tg was obtained and radiolabeled as previously described in Borjesson, P. K.; Jauw, Y. W.; de Bree, R.; Roos, J. C.; Castelijns, J. A.; Leemans, C. R.; van Dongen, G. A.; Boellaard, R. Radiation dosimetry of 89 Zr-labeled chimeric monoclonal antibody U36 as used for immuno-PET in head and neck cancer patients. J Nucl Med 2009, 50, 1828-36. The mice were euthanized after 22 h and tumor, blood, heart, lung, liver, spleen, kidney, and muscle were resected. All tissues were weighted, and the radioactivity measured in a gamma counter (Wizard2, Perkin Elmer) and data was corrected for decay, tissue weight and injected amount of radioactivity. FIG. 3 illustrate the workflow of the blocking assay.

Series [2] in a line: Bench stability by analytical HPLC. The format is physicochemical. As for the experimental part:
The stability of [^18F]13 and it precursor (28) was investigated by analytical HPLC. [^18F]13 was stable for at least 4 hours and therefore, sufficient for most applications (FIG. 5A). […] The process could be prevented storing the precursor (28) at −20° C. as a solid—at least for 3 months (FIG. 5B).

Series [3] in a line: Tetrazine core reactivity test with TCO-PNP. As to conditions: for tetrazine core after radiolabeling: analytical chromatogram before and after TCO-PNP addition. The format is physicochemical. How it is done:
• a) The reaction between [^18F]13 TCO-PNP was performed by mixing the formulated [^18F]13 (200 μL) with 5 μL of the commercially available TCO-PNP ester dissolved in DMF (5 mg/mL) in an analytical HPLC vial. The solution was gently shaken and left for 1 min before it was injected on the analytical HPLC for analysis. • b) The reaction between [^18F]14 and TCO-PNB was performed by mixing the formulated [^18F]14 (200 μL) with 5 μL of the commercially available TCO-PNB ester dissolved in DMF (5 mg/mL) in an analytical HPLC vial. The solution was gently shaken and left for 1 min before it was injected on the analytical HPLC for analysis.

Series [4] has as its system CC49-TCO. The experiment in a line: Pretargeted PET/CT imaging in LS174T tumor xenograft bearing mice. The format is in vivo, Balb/c nude mice. Conditions: for tumor-to-blood (T/B) ratio: 1 h; for tumor uptake: mice pretreated with CC49-TCO 72 h prior; for tumor-to-muscle ratio in comparison: compared to [64Cu]Cu-NOTA-PEG7-H-Tz, [111In]Tz-Tg and ZZ; for tumor-to-muscle (T/M) ratio: image derived, 1 h p.i., animals pretargeted with CC49-TCO; for pharmacokinetics: pretargeted experiments in mice. How it is done: The ability of [^18F]13 and [^18F]14 to be used as a pretargeting imaging agents was evaluated using a similar pretargeted setup that was used for the ex vivo blocking study in example 7. Mice were administered with CC49-TCO 72 h prior to administration of [^18F]13 or [^18F]14 where after PET/CT scanning was performed 1 h later. Control animals were injected with unconjugated mAb CC49 instead of CC49-TCO, but were otherwise treated exactly the same. After PET/CT scanning, animals were euthanized and an ex vivo biodistribution performed.
A) Pretargeted imaging of [^18F]13: Pretargeted imaging of [^18F]13 as tested in vivo using the TAG-72 targeting antibody CC49 in human colorectal cancer xenograft tumors LS174T. Tumors were established in 7-8 week old Balb/c nude mice and after one week, the animals were injected i.v. with either 50 ug […] TCO-modified CC49 (CC49-TCO, ˜7 TCO/mAb), or non-modified CC49 (control) (n=4 per group). 72 hours later, ^18F-13 (1.74±0.319 (mean±SD) MBq/100 μL (55.3 GBq/μmol) were injected i.v., followed by PET/CT-scan (Inveon®, Siemens Medical Solutions), one hour post injection. PET data was acquired in an energy window of 350-650 KeV and a time resolution of 6 ns followed by a CT scan (360 projections, 65 kV, 500 pA and 400 ms). PET and CT images were aligned by rigid affine registration, after which 3D regions of interest (ROI) were created on the full CT tumor volume, as well as heart and muscle tissue to quantify uptake of [^18F]13 (FIG. 6). Additionally, selected organs were harvested for ex vivo biodistribution. The radioactivity in the tissues were determined using a gamma counter (Wizard 2 , Perkin Elmer). Data was corrected for decay, tissue weight and the injected dose of radioactivity. GraphPad Prism 9 (GraphPad Software) was used for statistical analyses and plotting data. Statistical difference between mean % ID/g values were analyzed using Welch's T-test. Results were considered significant when p<0.05.
B) Pretargeted imaging of [^18]14: LS174T xenografts were established in mice as previously described. When tumors reached a size of ˜100 mm3 animals were matched based on their tumor volume and divided into two groups (tumor volumes of, n=5/group), and injected iv with 50 μg in 100 μL of either CC49-TCO or CC49. After 72 h the animals were administered iv with [^18F ]14(4.74±1.39 MBq in 100 μL) and PET/CT (Inveon, Siemens Medical Solutions, USA) scanned 1 h later, using a PET acquisition time of 5 min, an energy window of 350-650 KeV and a time resolution of 6 ns;
followed by a continuous 360 projections/360° CT scan, acquired with a x-ray tube voltage of 65 kV, a tube anode current of 500 pA and an exposure time per projection of 400 ms (FIG. 8). Mice were anaesthetized breathing 3% sevoflurane (5% for induction) mixed in 35% O2 in N2 and during scans the body temperature of the mice was kept stable using a heating pad.
Signograms from PET scans were reconstructed using a 3-dimensional maximum a posteriori algorithm with correction for scatter and attenuation. The mean percentage of injected dose per grams (% ID/g) was determined by manually creating regions of interest (ROI) on co-registered PET/CT images (Inveon Research Workplace software, Siemens Medical Solutions, USA).

In the case of `O=C(O)C(F)(F)F.O=C(O)CN(CCF)Cc1cc(F)cc(-c2nncnn2)c1` [Compound 9, N-(carboxymethyl)-2-fluoro-N-(3-fluoro-5-(1,2,4,5-tetrazin-3-yl)benzyl)ethanaminium 2,2,2-trifluoroacetate], the “Normalized Tumor blocking effect” value in the series with CC49-TCO [1] is reported as 76.

For `O=C(O)C(F)(F)F.O=C(O)CN(CCF)Cc1cccc(-c2nncnn2)c1` [Compound 10, N-(3-(1,2,4,5-tetrazin-3-yl)benzyl)-N-(carboxymethyl)-2-fluoroethanaminium 2,2,2-trifluoroacetate], the “Normalized Tumor blocking effect” value with CC49-TCO [1] is listed as 75.

As for `O=C(O)C(F)(F)F.O=C(O)CN(CCF)Cc1ccc(-c2nncnn2)cc1F` [Compound 11, N-(carboxymethyl)-2-fluoro-N-(2-fluoro-4-(1,2,4,5-tetrazin-3-yl)benzyl)ethanaminium 2,2,2-trifluoroacetate], the “Normalized Tumor blocking effect” value with CC49-TCO [1] was found to be 69.

As to `O=C(O)C(F)(F)F.O=C(O)CN(CCF)Cc1ccc(-c2nncnn2)cc1` [Compound 12, N-(4-(1,2,4,5-tetrazin-3-yl)benzyl)-N-(carboxymethyl)-2-fluoroethanaminium 2,2,2-trifluoroacetate], in the series on CC49-TCO [1], the “Normalized Tumor blocking effect” value is 69.

For `O=C(O)C(F)(F)F.O=C(O)CN(CC(=O)O)Cc1ccc(-c2nncnn2)cc1OCCF` [Compound 13, 1-Carboxy-N-(carboxymethyl)-N-(2-(2-fluoroethoxy)-4-(1,2,4,5-tetrazin-3-yl)benzyl) methanaminium 2,2,2-trifluoroacetate], in the series on CC49-TCO [1], the “Normalized Tumor blocking effect” value is given as 98.

With `O=C(O)C(F)(F)F.O=C(O)CN(CC(=O)O)Cc1ccc(-c2nnc(-c3ccc(OCCF)cn3)nn2)nc1` [Compound 14, 1-Carboxy-N-(carboxymethyl)-N-((6-(6-(5-(2-fluoroethoxy)pyridin-2-yl)-1,2,4,5-tetrazin-3-yl)pyridin-3-yl)methyl)methanaminium 2,2,2-trifluoroacetate], the blocking effect with CC49-TCO [1] (blocking of [111In]Tz-Tg binding to CC49-TCO in vivo) was determined as 99%. Further, the “Normalized Tumor blocking effect” value in the series with CC49-TCO [1] was 99.

Regarding `CC(C)(C)OC(=O)CN(CC(=O)OC(C)(C)C)Cc1ccc(-c2nncnn2)cc1OCCOS(=O)(=O)c1ccc([N+](=O)[O-])cc1` [Compound 28, Di-tert-butyl 2,2′-((2-(2-(((4-nitrophenyl)sulfonyl)oxy)ethoxy)-4-(1,2,4,5-tetrazin-3-yl)benzyl)azanediyl)diacetate], in series [2] (analytical HPLC), the stability of precursor entry was “decomposed over time”. In addition, the time stable entry in series [2] (dissolved (25 mg/mL) in DMSO and frozen at −20° C.) is “at least 3 months”; in series [2] (stored at −20° C. as a solid), at least 3 months.

Take `O=C(O)CN(CC(=O)O)Cc1ccc(-c2nncnn2)cc1OCC[18F]` [[^18F]13]: in series [3] (after 4 hours at r.t.), the “ability to react with TCO-PNP” value is “quantitatively”. Also, the “tetrazine core after radiolabeling” value in series [3] was “intact”. Besides, the “Stability at r.t. over 4 hours” value in series [2] (after 4 hours at r.t.) is given as “no signs of decomposition”. In addition, in series [2] (formulated tracer at r.t., analytical HPLC), the time stable result is on record as “at least 4 hours”. Also, in the series with CC49-TCO [4], the “tumor-to-blood (T/B) ratio” value is 1.2, the “tumor-to-muscle ratio in comparison” value is “highest”, the “tumor-to-muscle (T/M) ratio” value was 20.1 and the pharmacokinetics result was “favorable”. For the same molecule, in the series on CC49-TCO [4] (PET/CT 1 h p.i.), the “Uptake in tissues beside tumor and blood” value is “low”. In addition, in the series on CC49-TCO [4] (PET/CT 1 h p.i., control mice injected with unconjugated CC49 72 h prior, mean±S.E.M), the “tumor uptake, control” value amounted to 0.01±0.01 % ID/g. The tumor uptake in the series with CC49-TCO [4] (PET/CT 1 h p.i., mean±S.E.M) is given as 1.87±0.31 % ID/g.

For the molecule `O=C(O)CN(CC(=O)O)Cc1ccc(-c2nnc(-c3ccc(OCC[18F])cn3)nn2)nc1` [[^18F]14], in series [3], the “tetrazine core after radiolabeling” value is “intact”. For the same molecule, in the series with CC49-TCO [4], the “tumor-to-blood (T/B) ratio” value is on record as 0.8, the “tumor-to-muscle ratio in comparison” value is recorded as “highest”, the “tumor-to-muscle (T/M) ratio” value was determined as 9.0 and the pharmacokinetics entry is listed as “favorable”. Also, in the series on CC49-TCO [4] (PET/CT 1 h p.i.), the “Uptake in muscle tissue” value is “generally low”. Also, the “uptake in blood (heart used as a surrogate)” value in the series on CC49-TCO [4] (PET/CT 1 h p.i., CC49-TCO group) is on record as “high”. The tumor uptake in the series on CC49-TCO [4] (PET/CT 1 h p.i., mean±S.E.M) is listed as 1.8±0.3 % ID/g.
